# Reference: US9795140B2, “Molecules having pesticidal utility, and intermediates, compositions, and processes, related thereto” (priority 2015, dated 2017)
# Legend:
# Type in all cases: in vivo
# [1] = system: Beet Armyworm (Spodoptera exigua, LAPHEG); assay: Bioassay on Beet Armyworm (BAW), 128-well diet tray assay; settings: 168 h, 50 μg/cm^2 on artificial diet, second instar larvae, 25° C., five to seven days, average of eight wells, read-out: BAW % Control (or Mortality) rating
# Summary of the method: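 In a 128-well format, eight wells per compound received a surface dose of 50 μg/cm^2 on artificial diet. After drying, each well got one to five second instar larvae, held at 25° C. with 14:10 photoperiod. Mortality percentages after five to seven days were averaged.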
# [2] = system: Cabbage Looper (Trichoplusia ni, TRIPNI); assay: Bioassay on Cabbage Looper (CL), 128-well diet tray assay; settings: 168 h, 50 μg/cm^2 on artificial diet, second instar larvae, 25° C., five to seven days, average of eight wells, read-out: CL % Control (or Mortality) rating
# Summary of the method: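 Percent larval mortality, averaged across eight replicate wells, was scored after 5–7 days at 25 °C with a 14:10 photoperiod. Each well held 1 mL diet surface-treated at 50 μg/cm^2 with test molecule from a 90:10 acetone-water solution, then dried. Wells were infested with one to five second-instar cabbage loopers.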
# [3] = system: Green Peach Aphid (Myzus persicae, MYZUPE); assay: Bioassay on Green Peach Aphid (GPA), foliar spray on cabbage seedlings; settings: 72 h, 200 ppm spray on infested cabbage seedlings, three days, Abbott corrected % control, read-out: GPA % Control (or Mortality) rating
# Protocol: Certain molecules disclosed in this document were tested against GPA using procedures described in the following example. In the reporting of the results, the “GPA & YFM Rating Table” was used (See Table Section).
# Cabbage seedlings grown in 3-inch pots, with 2-3 small (3-5 cm) true leaves, were used as test substrate. The seedlings were infested with 20-50 GPA (wingless adult and nymph stages) one day prior to chemical application. Four pots with individual seedlings were used for each treatment. Test molecules (2 mg) were dissolved in 2 mL of acetone/methanol (1:1) solvent, forming stock solutions of 1000 ppm test molecule. The stock solutions were diluted 5× with 0.025% Tween 20 in water to obtain the solution at 200 ppm test molecule. A hand-held aspirator-type sprayer was used for spraying a solution to both sides of […] leaves until runoff. Reference plants (solvent check) were sprayed with the diluent only containing 20% by volume of acetone/methanol (1:1) solvent. Treated plants were held in a holding room for three days at approximately 25° C. and ambient relative humidity (RH) prior to grading. Evaluation was conducted by counting the number of live aphids per plant under a microscope. Percent control was measured using Abbott's correction formula (W. S. Abbott, “A Method of Computing the Effectiveness of an Insecticide” J. Econ. Entomol. 18 (1925), pp. 265-267) as follows. Corrected % Control=100*(X−Y)/X where X=No. of live aphids on solvent check plants and Y=No. of live aphids on treated plants. The results are indicated in the table entitled “Table ABC: Biological Results” (See Table Section).
# [4] = system: Yellow Fever Mosquito (Aedes aegypti, AEDSAE); assay: Bioassay on Yellow Fever Mosquito (YFM) larvae, 96-well plate; settings: about 1 day-old larvae, room temperature, 3 days, scored on mortality
# Summary of the method: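 Compound stocks at 4000 ppm in DMSO were diluted with 90:10 water/acetone, and 15 μL aliquots were dispensed into six replicate plates. About 1-day-old larvae in liver-powder water were added per well. Plates were covered and held at room temperature for 3 days before each well was scored for mortality.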
SMILES,mortality at 50 µg/cm2 [1],mortality at 50 µg/cm2 [2],mortality at 200 ppm [3],YFM % Control (or Mortality) rating [4]
"CNC(=O)c1cc(NC(=O)[C@H]2[C@H](c3cc(Cl)cc(Cl)c3)C2(Cl)Cl)ccc1C(F)(F)F (relative stereo) [F2, trans-5-(2,2-Dichloro-3-(3,5-dichlorophenyl)cyclopropane-1-carboxamido)-N-methyl-2-(trifluoromethyl)benzamide]",50 to 100%,50 to 100%,0 to 80%,A (80-100)
"O=C(NCC(F)(F)F)c1cc(NC(=O)[C@H]2[C@H](c3cc(Cl)cc(Cl)c3)C2(Cl)Cl)ccc1Cl (relative stereo) [F4, trans-2-Chloro-5-(2,2-dichloro-3-(3,5-dichlorophenyl)cyclopropane-1-carboxamido)-N-(2,2,2-trifluoroethyl)benzamide]",50 to 100%,50 to 100%,80 to 100%,A (80-100)
"O=C(NCc1cccnc1)c1cc(NC(=O)[C@H]2[C@H](c3cc(Cl)cc(Cl)c3)C2(Cl)Cl)ccc1Cl (relative stereo) [F6, trans-2-Chloro-5-(2,2-dichloro-3-(3,5-dichlorophenyl)cyclopropane-1-carboxamido)-N-(pyridin-3-ylmethyl)benzamide]",50 to 100%,50 to 100%,0 to 80%,A (80-100)
"O=C(NCc1ccncc1)c1cc(NC(=O)[C@H]2[C@H](c3cc(Cl)cc(Cl)c3)C2(Cl)Cl)ccc1Cl (relative stereo) [F12, trans-2-Chloro-5-(2,2-dichloro-3-(3,5-dichlorophenyl)cyclopropane-1-carboxamido)-N-(pyridin-4-ylmethyl)benzamide]",50 to 100%,50 to 100%,0 to 80%,A (80-100)
"O=C(NCc1ccncc1)c1cc(NC(=O)[C@H]2[C@H](c3cc(Cl)c(Cl)c(Cl)c3)C2(Cl)Cl)ccc1Cl (relative stereo) [F13, trans-2-Chloro-5-(2,2-dichloro-3-(3,4,5-trichlorophenyl)cyclopropane-1-carboxamido)-N-(pyridin-4-ylmethyl)benzamide]",50 to 100%,50 to 100%,0 to 80%,A (80-100)
"C=CCONC(=O)c1cc(NC(=O)[C@H]2[C@H](c3ccc(Cl)c(Cl)c3)C2(Cl)Cl)ccc1Cl (relative stereo) [F14, trans-N-(Allyloxy)-2-chloro-5-(2,2-dichloro-3-(3,4-dichlorophenyl)cyclopropane-1-carboxamido)benzamide]",50 to 100%,50 to 100%,0 to 80%,A (80-100)
"O=C(NCc1ccccc1)c1cc(NC(=O)[C@H]2[C@H](c3cc(Cl)cc(Cl)c3)C2(Cl)Cl)ccc1Cl (relative stereo) [F27, trans-N-benzyl-2-chloro-5-(2,2-dichloro-3-(3,5-dichlorophenyl)cyclopropane-1-carboxamido)benzamide]",50 to 100%,50 to 100%,0 to 80%,A (80-100)
"O=C(NCc1ccc(F)cc1)c1cc(NC(=O)[C@H]2[C@H](c3cc(Cl)cc(Cl)c3)C2(Cl)Cl)ccc1Cl (relative stereo) [F28, trans-2-Chloro-5-(2,2-dichloro-3-(3,5-dichlorophenyl)cyclopropane-1-carboxamido)-N-(4-fluorobenzyl)benzamide]",50 to 100%,50 to 100%,80 to 100%,A (80-100)
"O=C(NOc1ccccc1)c1cc(NC(=O)[C@H]2[C@H](c3cc(Cl)cc(Cl)c3)C2(Cl)Cl)ccc1Cl (relative stereo) [F29, trans-2-chloro-5-(2,2-dichloro-3-(3,5-dichlorophenyl)cyclopropane-1-carboxamido)-N-phenoxybenzamide]",0%,0%,0 to 80%,A (80-100)
"CC(C)CNC(=O)c1cc(NC(=O)[C@H]2[C@H](c3cc(Cl)cc(Cl)c3)C2(Cl)Cl)ccc1Cl (relative stereo) [F30, trans-2-chloro-5-(2,2-dichloro-3-(3,5-dichlorophenyl)cyclopropane-1-carboxamido)-N-isobutylbenzamide]",50 to 100%,50 to 100%,80 to 100%,A (80-100)
"CCCCCCNC(=O)c1cc(NC(=O)[C@H]2[C@H](c3cc(Cl)cc(Cl)c3)C2(Cl)Cl)ccc1Cl (relative stereo) [F31, trans-2-Chloro-5-(2,2-dichloro-3-(3,5-dichlorophenyl)cyclopropane-1-carboxamido)-N-hexylbenzamide]",50 to 100%,50 to 100%,0 to 80%,B (More than 0-Less than 80)
"O=C(NCc1ccc(F)c(F)c1)c1cc(NC(=O)[C@H]2[C@H](c3cc(Cl)cc(Cl)c3)C2(Cl)Cl)ccc1Cl (relative stereo) [F32, trans-2-Chloro-5-(2,2-dichloro-3-(3,5-dichlorophenyl)cyclopropane-1-carboxamido)-N-(3,4-difluorobenzyl)benzamide]",50 to 100%,50 to 100%,0 to 80%,A (80-100)
"O=C(NCCOCC1CC1)c1cc(NC(=O)[C@H]2[C@H](c3cc(Cl)cc(Cl)c3)C2(Cl)Cl)ccc1Cl (relative stereo) [F43, trans-2-Chloro-N-(2-(cyclopropylmethoxy)ethyl)-5-(2,2-dichloro-3-(3,5-dichlorophenyl)cyclopropane-1-carboxamido)benzamide]",50 to 100%,50 to 100%,80 to 100%,
"O=C(NOCc1ccc(F)cc1)c1cc(NC(=O)C2C(c3cc(Cl)c(Cl)c(Cl)c3)C2(Cl)Cl)ccc1Cl (stereo not drawn) [F18, trans-N-2-Chloro-5-(2,2-dichloro-3-(3,4,5-trichlorophenyl)cyclopropane-1-carboxamido)-N-((4-fluorobenzyl)oxy)benzamide]",50 to 100%,50 to 100%,0 to 80%,
"O=C(NCCC1CC1)c1cc(NC(=O)C2C(c3cc(Cl)cc(Cl)c3)C2(Cl)Cl)ccc1Cl (stereo not drawn) [F24, trans-N-2-Chloro-N-(2-cyclopropylethyl)-5-(2,2-dichloro-3-(3,5-dichlorophenyl)cyclopropane-1-carboxamido)benzamide]",50 to 100%,50 to 100%,,A (80-100)
"O=C(NCCC1CC1)c1cc(NC(=O)C2C(c3ccc(Cl)c(Cl)c3)C2(Cl)Cl)ccc1Cl (stereo not drawn) [F25, trans-N-2-Chloro-N-(2-cyclopropylethyl)-5-(2,2-dichloro-3-(3,4-dichlorophenyl)cyclopropane-1-carboxamido)benzamide]",50 to 100%,50 to 100%,,A (80-100)
"O=C(NCCC1CC1)c1cc(NC(=O)C2C(c3cc(Cl)c(Cl)c(Cl)c3)C2(Cl)Cl)ccc1Cl (stereo not drawn) [F26, trans-N-2-Chloro-N-(2-cyclopropylethyl)-5-(2,2-dichloro-3-(3,4,5-trichlorophenyl)cyclopropane-1-carboxamido)benzamide]",50 to 100%,50 to 100%,,A (80-100)
"COc1c(F)cc(C2C(C(=O)Nc3ccc(Cl)c(C(=O)NCC(F)(F)F)c3)C2(Cl)Cl)cc1F (stereo not drawn) [F125, 2-Chloro-5-trans-(2,2-dichloro-3-(3,5-difluoro-4-methoxyphenyl)cyclopropane-1-carboxamido)-N-(2,2,2-trifluoroethyl)benzamide]",50 to 100%,50 to 100%,,A (80-100)
"O=C(NCC(F)(F)F)c1cc(NC(=O)C2C(c3cc(F)c(F)c(F)c3)C2(Cl)Cl)ccc1Cl (stereo not drawn) [F126, 2-Chloro-5-trans-(2,2-dichloro-3-(3,4,5-trifluorophenyl)cyclopropane-1-carboxamido)-N-(2,2,2-trifluoroethyl)benzamide]",50 to 100%,50 to 100%,,A (80-100)
